Measurements reported in patent US20220305003A1, “METHODS OF TREATING CANCER WITH AN INHIBITOR OF ZNF827” (CHILDREN'S MEDICAL RESEARCH INSTITUTE, priority 2019, published 2022).

What was measured:
[1] = tested on: HT1080 and HT1080 6TG cells; experiment: γH2AX and ZNF827 foci by immunofluorescence; settings: topotecan 2 μg/mL 24 hr vs unchallenged
[2] = tested on: HT1080 FUCCI cells; experiment: Live cell imaging of cell cycle in FUCCI cells; type: cell-based
Description: To further characterise the impact of ZNF827 on the cell cycle, live cell imaging was conducted with HT1080 FUCCI cells, to monitor cell progression through the cell cycle in real-time following ZNF827 depletion. The FUCCI (fluorescence ubiquitination cell cycle indicator) cells were stably transfected with fluorescence-labelled cell cycle-regulated proteins, geminin (labelled by GFP) and Cdt1 (labelled by RFP), which are only expressed during specific phases of the cell cycle (FIG. 9c). Their expressions are used to classify cells by cell cycle phase in a live cell setting.
HT1080 FUCCI cells were seeded in glass bottom 12-well plates (MakTek Corporation) the day before imaging at 30% confluency, to ensure that cells were actively cycling for the duration of the experiment. Media was replaced with phenol red free DMEM (Gibco) supplemented with 10% FCS and drug treatment immediately before transferring the plate to the microscope chamber. Imaging was performed on the Cell Observer Widefield Microscope (Zeiss) using a 20× objective at 37° C. with 10% CO2 in a XLmulti S1 full enclosure chamber. Cells were incubated in the XLmulti S1 full enclosure chamber for 2 hours prior to imaging. Three to four positions per well were captured with AxioCam (Zeiss) 506 Mono using ZEN software (Carl Zeiss) with images taken every 6 minutes for 60 hours. More than 15 cells were analysed at each position for each condition to confirm reproducibility.

[3] = tested on: HT1080 cells; experiment: Sister chromatid exchange (SCE) assay in HT1080; type: cell-based; settings: 72 hr siRNA knockdown of ZNF827, topotecan 2 μg/mL 1 hr
Description: For the SCE assay, 20-25% confluent cells were cultured in fresh media supplemented with 7.5 μM […] (BrdU) and 2.5 μM BrdC (BrdU:BrdC 3:1 ratio; Sigma-Aldrich) for 32-48 hours depending on the mitotic index of the cell line. Cell cultures were treated with 100 ng/mL colcemid for the last 4 hours of incubation to accumulate mitotic cells. Cells were harvested by trypsinisation and centrifugation, and then incubated in hypotonic buffer for 10 minutes at 37° C. Swollen cells were fixed by gradually adding 1 mL of fresh ice-cold fixative (methanol/acetic acid 3:1), mixing by inversion and incubating on ice for 5 minutes. Cells were then collected by centrifugation at 1200 rpm for 8 minutes. 10 mL ice cold fixative was added to resuspend the cells followed by 5 minutes incubation on ice and centrifugation at 1200 rpm for 8 minutes. This fixing step was repeated another two times. Fixed cells were then resuspended in 500-1000 μL of ice-cold fixative, and dropped onto clean, dry microscope slides (HDS Surefrost, 50-100 μL cell solution per slide). To drop chromosomes, a clean dry slide was held over a 75° C. water bath, and the cell solution was dropped from a pipette onto the slide, which was quickly flipped and held close to the surface of the water bath for 5 seconds. […]

[4] = 72 hr siRNA knockdown in conjunction with topotecan 2 μg/mL 1 hr

Molecule	ZNF827 foci induction [1]	γH2AX foci induction [1]	G1 duration / G1 arrest ([2]; 72 hr siRNA knockdown alone)	S/G2-M duration / G2/M arrest ([2]; 72 hr siRNA knockdown alone)	G1 duration / G1 arrest [2, 4]	S/G2-M duration / G2/M arrest [2, 4]	sister chromatid exchanges (SCEs) [3]
CC[C@@]1(O)C(=O)OCc2c1cc1n(c2=O)Cc2cc3c(CN(C)C)c(O)ccc3nc2-1 [topotecan]	striking induction of ZNF827	efficiently induced γH2AX foci	–	–	–	–	–
siZNF827: Stealth RNAi siRNA ZNF827HSS135819 duplex oligoribonucleotides (Invitrogen), SEQ ID NO: 12 and 13 (chain 1 GGGCAGUCUUCUGGCUGAGAAAUCA; chain 2 UGAUUUCUCAGCCAGAAGACUGCCC; listed as RNA, further chemistry not given here)	–	–	strong G1 arrest comparable to topotecan treatment	no impact on G2/M by itself	further exacerbated G1 arrest	significant decrease in topotecan induced G2/M arrest	suppression of SCEs
